“Also recorded” adds a separate entry of the source. Like-named read-outs stand apart in the source and are kept apart here. Positions of bridges follow the written chain, without caps; N, C: chain ends. Residues, ends and D or L forms follow the SMILES beside them. No end group written: not given here.
What was measured:
[1] = ThT assay of fibrillization kinetics, peptides alone; format: physicochemical
Procedure: (§1) The time course of fibrillization in solution was monitored using 100–200 μL amylin samples, contained in white polystyrene clear bottom 96-well plates (Corning Inc., Corning, NY). Plates were covered with a clear polyester sealing tape (Fisher Scientific, Agawam, MA) to prevent evaporation. Stock solutions of 1.1 mM WT-amylin and inhibitor peptides were prepared in 100% DMSO, which dissolves and disaggregates amylin fibrils, and were stored at −80°C when not in use. Starting from the 1.1 mM stock solutions in 100% DMSO, samples for fibrillization reactions were prepared to contain 20 μM amylin and 10 μM ultrapure ThT, in 20 mM sodium phosphate buffer, pH 7.4, and a final DMSO concentration of 2% (v/v). For experiments using larger 400 μM concentrations of Arg-2 and Mem-T, the solutions were prepared by diluting 100% DMSO stock solutions of 20 mM peptide to a final DMSO concentration of 2% (v/v). Amylin was the last component added to the samples for the kinetic reactions, in order to reduce the dead time for the experiments. The plates were incubated at 25°C without agitation. Fluorescence intensity was recorded at 2 min intervals with excitation at 440 nm and emission at 490 nm on a Fluoroskan Ascent 2.5 fluorescence plate reader. Fibrillization reactions for the peptides alone were performed in triplicate and for analog-peptide inhibition of WT-amylin in duplicate, to estimate experimental uncertainties in kinetic parameters.

[2] = molecular target: T1, WT-amylin (Homo sapiens, UniProt P10997); assay: ThT assay, inhibition of WT-amylin fibrillization by analogs added in trans; format: biochemical; set-up: purchased Biopeptide (San Diego, CA); host or cells: solid-phase synthesis; conditions: 20 μM WT-amylin
T1 sequence (P10997 34-70 limits assumed): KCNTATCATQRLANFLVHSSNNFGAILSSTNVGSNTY
Procedure: as §1, with “Starting from the 1.1 mM stock solutions in 100% DMSO, samples for fibrillization reactions were prepared to contain 20 μM amylin and 10 μM ultrapure ThT, in 20 mM sodium phosphate buffer, pH 7.4, and a final DMSO concentration of 2% (v/v).” left out

[3] = system: WT-amylin cytotoxicity towards MIN6 mouse model of pancreatic β-cells; assay: Protection of MIN6 cells against WT-amylin cytotoxicity (Alamar Blue); conditions: MIN6 cells, 80 μM WT-amylin, up to 2 : 1 inhibitor : WT-amylin
Procedure: (§2) The stock solutions were diluted with FBS-free DMEM and sonicated continuously for 5 min at 75% amplitude before use. FBS was subsequently added to a concentration of 15% (v/v), giving final amylin concentrations of 40, 80, and 160 μM. The final DMSO concentration for all cytotoxicity experiments was 1% (v/v).
(§3) Cytotoxicity was measured using the mouse insulinoma 6 (MIN6) cell line model of β-pancreatic cells, which were a gift from Dr. Anil Rustgi (University of Pennsylvania). Cells were seeded at a density of 20,000 per 100 μL in black clear-bottom 96-well plates. The cells were grown in DMEM with 15% FBS, 25 mM glucose, 2 mM L-glutamine, […] sodium pyruvate, 55 μM β-mercaptoethanol, 1000 units/mL penicillin, and 100 μg/mL streptomycin, for 20 h at 37°C in a humidified incubator with 5% CO2. […] The cells were incubated for another 24 h followed by the addition of 10% (v/v) of the redox indicator dye Alamar Blue at the concentration supplied by the manufacturer (Invitrogen). Fluorescence, due to the reduction of Alamar Blue by viable cells, was measured after 6 h, using excitation and emission wavelengths of 544 and 590 nm, respectively. Cell viability was calculated from the ratio of Alamar Blue fluorescence in treated to untreated cells. Uncertainties were calculated as the SEMs of triplicate measurements.

[4] = molecular target: T1, WT-amylin; assay: TEM of WT-amylin fibrils formed in presence of inhibitor peptides; format: biochemical; set-up: purchased Biopeptide (San Diego, CA); host or cells: solid-phase synthesis; conditions: 80 μM WT-amylin with 160 μM analog, 20 mM sodium phosphate pH 7.4, 1% DMSO, 37°C, 24 h
Procedure: (§4) Samples containing 80 μM concentrations of WT-amylin and the three analogs were incubated without agitation at a temperature of 37°C in 20 mM phosphate buffer (pH 7.4). For the inhibition reactions, samples contained WT-amylin at an 80 μM concentration, together with 160 μM of Arg-1, Arg-2, or Mem-T analogs. Aliquots from the reactions were removed after 2 days for TEM imaging. The aliquots were blotted onto carbon-coated 400-mesh Maxtaform copper grids (Ted Pella Inc. Redding, CA) for 1–3 min, followed by negative staining with 1% uranyl acetate. TEM images were recorded on an FEI Tecnai G^2 Spirit BioTwin transmission electron microscope equipped with an AMT XR-40 camera.
Figure 8 TEM images of fibrils formed from 80 μM WT amylin in the presence or absence of inhibitor peptides. (a) WT amylin alone, (b) with 160 μM Arg-1, (c) with 160 μM Arg-2, and (d) with 160 μM Mem-T. Aliquots were removed for TEM imaging 24 h after the fibrillization reactions were started. Reactions were carried out in 20 mM sodium phosphate (pH 7.4), 1% DMSO (v/v), at 37°C.

[5] = TEM of aggregates formed by peptides alone; format: physicochemical; conditions: 80 μM peptide, 2 days, 20 mM phosphate pH 7.4, 37°C, no agitation
Procedure: as §4

[6] = system: MIN6 models of pancreatic β-cells; conditions: neutral pH, cited from earlier work
Excerpt: (§5) In type 2 diabetes, the positively charged 37-residue hormone amylin misfolds into cationic fibrils which have been implicated in the destruction of the pancreatic β-cells that make insulin and amylin, thus contributing to pathology. Amylin is a particularly favorable system for investigating the roles of charges in fibrillization, since the core of the intermolecular β-sheet fibril structure has only one pH-titratable group, His18 [9]. The histidine acts as an electrostatic switch, inhibiting fibrillization in its charged state at acidic pH and favoring fibrillization in its uncharged ... || The motivation for the studies described in this work was to see if electrostatic charge repulsion could be exploited to design new types of inhibitors of amylin fibrillization and cytotoxicity. […] Moreover, addition of a single charged lysine residue ...

[7] = system: WT-amylin fibrillization; conditions: cited from earlier work
Excerpt: as §5, with “|| An IC50 analysis of the inhibition data was performed to obtain quantitative information (Figure 5).” for “||”, “Arg-1 concentration-dependence” for “motivation”, “inhibition of WT-amylin fibril elongation rates gives an IC50 value of 0.6 ± 0.5 μM. For Arg-2 and Mem-T, the IC50 values are ~10 μM (Figure 5(a)). In addition” for “studies described in this work was”, “effecting elongation rates, Arg-2 increases the lag times for WT-amylin fibrillization with an IC50” for “see if electrostatic charge repulsion could be exploited to design new types”, “~0.1 μM.” for “inhibitors of amylin fibrillization and cytotoxicity.”

[8] = set-up: method as in 2 sources, ref 21 = [21]; PMID 23016872; doi:10.1021/bi300574r; 21 Marek P. J. Patsalo V. Green D. F. Raleigh D. P. Ionic strength effects on amyloid formation by amylin are a complicated interplay among debye screening, ion selectivity, and hofmeister effects Bio ||| ref 7 = [7]; PMID 22206987; doi:10.1016/j.jmb.2011.12.032; 7 Cao P. Tu L.-H. Abedini A. Sensitivity of amyloid formation by human islet amyloid polypeptide to mutations at residue 20 Journal of Molecular Biology 2012 421 2-3 282 295 10.1016/j.jmb.2011.12.032; conditions: compared to WT-amylin; cited from earlier work
Excerpt: In type 2 diabetes, the positively charged 37-residue hormone amylin misfolds into cationic fibrils which have been implicated in the destruction of the pancreatic β-cells that make insulin and amylin, thus contributing to pathology. Amylin is a particularly favorable system for investigating the roles of charges in fibrillization, since the core of the intermolecular β-sheet fibril structure has only one pH-titratable group, His18 [9].

[9] = system: MIN6 mouse model of pancreatic β-cells; conditions: melittin compared with 160 μM WT-amylin
Procedure: as §2, §3

[10] = 400 μM peptide, 150 mM NaCl, pH 7.4, 2% DMSO, 25°C, ThT, triplicate

CC[C@H](C)[C@H](NC(=O)[C@H](C)NC(=O)CNC(=O)[C@H](Cc1ccccc1)NC(=O)[C@H](CC(N)=O)NC(=O)[C@H](CC(N)=O)NC(=O)[C@H](CO)NC(=O)[C@H](CO)NC(=O)[C@H](Cc1c[nH]cn1)NC(=O)[C@H](CC(=O)O)NC(=O)[C@H](CC(=O)O)NC(=O)[C@H](CC(=O)O)NC(=O)[C@H](CC(N)=O)NC(=O)[C@H](C)NC(=O)[C@H](CC(=O)O)NC(=O)[C@H](CCCNC(=N)N)NC(=O)[C@H](CC(=O)O)NC(=O)[C@@H](NC(=O)[C@H](C)NC(=O)[C@@H]1CSSC[C@H](NC(=O)[C@@H](N)CCCCN)C(=O)N[C@@H](CC(N)=O)C(=O)N[C@@H]([C@@H](C)O)C(=O)N[C@@H](C)C(=O)N[C@@H]([C@@H](C)O)C(=O)N1)[C@@H](C)O)C(=O)N[C@@H](CC(C)C)C(=O)N[C@@H](CO)C(=O)N[C@@H](CO)C(=O)N[C@H](C(=O)N[C@@H](CC(N)=O)C(=O)N[C@H](C(=O)NCC(=O)N[C@@H](CO)C(=O)N[C@@H](CC(N)=O)C(=O)N[C@H](C(=O)N[C@@H](Cc1ccc(O)cc1)C(N)=O)[C@@H](C)O)C(C)C)[C@@H](C)O [Mem-T] (H-KCNTATCATDRDANDDDHSSNNFGAILSSTNVGSNTY-NH2; disulfide 2-7 (inferred); N-terminus assumed)
fibrillization detected (ThT) ([1]; 20 μM peptide, 150 mM NaCl, pH 7.4, 25°C): failed to fibrillize | fibril elongation rate [1, 10]: 6.1 ± 1.4 × 10^−6 min^−1 | fibrillization lag time [1, 10]: 10,000 min | fibrillization detected (ThT) ([1]; 400 μM peptide, absence of salt): only a very weak signal for fibrils was detected | fibrillization detected (ThT) ([1]; 400 μM peptide, pH 7.4, 2% DMSO, 25°C): weak fibrillization | fibrillization detected (ThT) ([1]; 400 μM peptide, physiological salt concentrations and above): Fibrillization was stimulated | reduction in elongation rates relative to arginine-peptides [2]: only about half of that for the arginine-peptides | effect on WT-amylin fibrillization lag time ([2]; 150 mM NaCl): decrease at high concentrations; also recorded: causes a reduction in lag times at high concentrations of the analog (>10 μM); also recorded: decreases the lag times | reduction of WT-amylin fibril elongation rate ([2]; 150 mM NaCl, analog 0.001 to 120 μM): 4 fold | salt dependence of inhibition of elongation rate ([2]; varying NaCl): salt effects on elongation rates are reduced close to the uncertainties of the measurements | salt dependence of lag time shortening ([2]; varying NaCl): shows a strong salt concentration dependence | protection against WT-amylin cytotoxicity (overall) [3]: failed to protect against WT-amylin cytotoxicity | TEM of WT-amylin fibrils formed with inhibitor [4]: indistinguishable from those formed with WT-amylin alone | aggregate morphology by TEM [5]: only detected amorphous aggregates with nonfibrillar morphologies; also recorded: few if any fibrils

H18R: H18R mutant of amylin (KCNTATCATQRLANFLVRSSNNFGAILSSTNVGSNTY; not fully specified (C-terminus); ends and bridges not checked; UniProt P10997 34-70, looked up, variant H18R)
cytotoxicity to β-cells [6]: not cytotoxic to β-cells | cytotoxicity to β-cells ([6]; listed as Substitution of a positively charged arginine at position 18): lowers cytotoxicity to MIN6 models of pancreatic β-cells compared to WT-amylin

S20K: amylin with the S20K mutation (KCNTATCATQRLANFLVHSKNNFGAILSSTNVGSNTY; not fully specified (C-terminus); ends and bridges not checked; UniProt P10997 34-70, looked up, variant S20K)
inhibition of WT-amylin fibrillization ([7]; added in trans): inhibit fibrillization of the WT-amylin peptide; also recorded: inhibits fibrillization of WT-amylin when added in trans | fibrillization of mutant amylin [8]: much slower fibrillization; also recorded: fibrillizes much more slowly

heparin
effect on WT-amylin fibrillization [7]: enhance fibrillization of WT-amylin

melittin
viability of MIN6 cells, positive control [9]: comparable to the value obtained with the potent toxin melittin

Source: publication PMC4630399, “Charge-Based Inhibitors of Amylin Fibrillization and Toxicity” (Journal of Diabetes Research, 2015)
